ChEMBL document CHEMBL3286254, “Structure-guided discovery of 1,3,5 tri-substituted benzenes as potent and selective matriptase inhibitors exhibiting in vivo antitumor efficacy” (Bioorg Med Chem, 2014)

Columns and labels:
[1] = molecular target: T1, Suppressor of tumorigenicity 14 protein (Homo sapiens, UniProt Q9Y5Y6); experiment: Inhibition of recombinant matriptase (unknown origin) using Boc-Gln-Ala-Arg-7-amido-4-methyl coumarin hydrobromide
T1 sequence (Q9Y5Y6 whole entry): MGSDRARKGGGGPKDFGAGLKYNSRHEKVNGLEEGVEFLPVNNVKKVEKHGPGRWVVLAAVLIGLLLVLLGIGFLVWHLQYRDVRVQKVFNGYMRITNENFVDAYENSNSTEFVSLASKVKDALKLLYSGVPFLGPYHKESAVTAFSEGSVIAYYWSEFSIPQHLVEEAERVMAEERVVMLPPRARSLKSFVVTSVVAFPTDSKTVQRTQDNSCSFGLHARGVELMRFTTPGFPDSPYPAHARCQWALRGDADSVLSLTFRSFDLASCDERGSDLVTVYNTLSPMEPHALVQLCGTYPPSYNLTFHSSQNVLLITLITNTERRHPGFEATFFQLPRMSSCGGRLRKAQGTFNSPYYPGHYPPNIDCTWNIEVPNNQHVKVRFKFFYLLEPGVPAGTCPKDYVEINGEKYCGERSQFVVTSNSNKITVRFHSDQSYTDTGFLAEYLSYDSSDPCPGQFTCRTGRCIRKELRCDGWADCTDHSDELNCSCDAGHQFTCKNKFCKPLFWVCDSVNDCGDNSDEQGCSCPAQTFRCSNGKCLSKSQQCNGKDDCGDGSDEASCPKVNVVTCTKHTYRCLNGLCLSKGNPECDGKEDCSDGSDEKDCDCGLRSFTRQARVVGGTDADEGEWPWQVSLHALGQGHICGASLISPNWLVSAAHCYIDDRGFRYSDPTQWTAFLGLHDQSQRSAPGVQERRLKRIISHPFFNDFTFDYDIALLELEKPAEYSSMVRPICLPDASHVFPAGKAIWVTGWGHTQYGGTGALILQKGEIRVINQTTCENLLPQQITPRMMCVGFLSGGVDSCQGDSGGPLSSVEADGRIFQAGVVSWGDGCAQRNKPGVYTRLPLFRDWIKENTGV

[2] = molecular target: Coagulation factor X (Bos taurus, UniProt P00743); experiment: Inhibition of bovine plasma factor 10a using CH3OCO-D-CHA-Gly-Arg-pNA.AcoH substrate
[3] = molecular target: Prothrombin (Homo sapiens, UniProt P00734); experiment: Inhibition of human thrombin using Boc-Gln-Ala-Arg-7-amido-4-methyl coumarin hydrobromide
[4] = molecular target: Trypsin (Homo sapiens, UniProt P07477+P07478+P35030); experiment: Inhibition of human pancreas Trypsin using Boc-Gln-Ala-Arg-7-amido-4-methyl coumarin hydrobromide; format: protein assay
[5] = molecular target: Plasminogen (Homo sapiens, UniProt P00747); experiment: Inhibition of human plasmin using pyroGlu-Phe-Lys-pNA.HCl
[6] = tested on: DU-145; experiment: Antiinvasion activity in human DU145 cells assessed as inhibition of FBS-induced cell invaded to lower surface at 10 uM for 3 days by matrigel assay; format: functional; details: DU-145, 72 h
[7] = Antiinvasion activity in human LNCaP-C42B4 cells assessed as inhibition of FBS-induced cell invaded to lower surface at 10 uM for 3 days by matrigel assay; format: functional; details: LNCaP-C42B4, 72 h
[8] = tested on: PC-3; experiment: Antiinvasion activity in human PC3 cells assessed as inhibition of FBS-induced cell invaded to lower surface at 10 uM for 3 days by matrigel assay; format: functional; details: PC-3, 72 h
[9] = tested on: DU-145; experiment: Cytotoxicity against human DU145 cells assessed as cell survival at 10 uM after 72 hrs by calcein AM assay; format: functional; details: DU-145, 72 h, read-out: Activity
[10] = Cytotoxicity against human LNCaP-C42B4 cells assessed as cell survival at 10 uM after 72 hrs by calcein AM assay; format: functional; details: LNCaP-C42B4, 72 h, read-out: Activity
[11] = tested on: PC-3; experiment: Cytotoxicity against human PC3 cells assessed as cell survival at 10 uM after 72 hrs by calcein AM assay; format: functional; details: PC-3, 72 h, read-out: Activity

Sequence of Plasminogen (P00747 97-580 limits assumed): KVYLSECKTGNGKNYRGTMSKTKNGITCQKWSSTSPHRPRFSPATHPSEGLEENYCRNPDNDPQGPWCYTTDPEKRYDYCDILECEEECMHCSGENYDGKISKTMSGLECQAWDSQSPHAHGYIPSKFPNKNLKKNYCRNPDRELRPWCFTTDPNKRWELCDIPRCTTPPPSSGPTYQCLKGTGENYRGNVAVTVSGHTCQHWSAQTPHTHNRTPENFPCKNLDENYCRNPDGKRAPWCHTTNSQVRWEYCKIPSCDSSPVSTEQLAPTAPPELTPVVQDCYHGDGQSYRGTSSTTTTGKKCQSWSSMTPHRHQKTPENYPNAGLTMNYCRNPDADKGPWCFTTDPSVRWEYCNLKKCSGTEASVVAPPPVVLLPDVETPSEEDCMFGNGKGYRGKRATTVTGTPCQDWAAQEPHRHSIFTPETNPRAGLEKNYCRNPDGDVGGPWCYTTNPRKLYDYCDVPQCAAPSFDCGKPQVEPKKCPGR
Sequence of Plasminogen (P00747 581-810 limits assumed): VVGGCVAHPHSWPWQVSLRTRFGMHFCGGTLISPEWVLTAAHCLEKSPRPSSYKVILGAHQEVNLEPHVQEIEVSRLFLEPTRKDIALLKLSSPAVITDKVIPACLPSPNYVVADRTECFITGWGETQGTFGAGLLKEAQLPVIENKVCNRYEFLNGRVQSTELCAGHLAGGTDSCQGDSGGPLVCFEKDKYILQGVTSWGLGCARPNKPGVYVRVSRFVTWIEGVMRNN
Sequence of Coagulation factor X (P00743 41-180 limits assumed): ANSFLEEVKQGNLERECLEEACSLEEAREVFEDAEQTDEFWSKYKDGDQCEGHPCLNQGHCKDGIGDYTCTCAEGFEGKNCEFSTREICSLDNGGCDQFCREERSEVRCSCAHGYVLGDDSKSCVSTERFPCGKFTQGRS
Sequence of Coagulation factor X (P00743 234-492 limits assumed): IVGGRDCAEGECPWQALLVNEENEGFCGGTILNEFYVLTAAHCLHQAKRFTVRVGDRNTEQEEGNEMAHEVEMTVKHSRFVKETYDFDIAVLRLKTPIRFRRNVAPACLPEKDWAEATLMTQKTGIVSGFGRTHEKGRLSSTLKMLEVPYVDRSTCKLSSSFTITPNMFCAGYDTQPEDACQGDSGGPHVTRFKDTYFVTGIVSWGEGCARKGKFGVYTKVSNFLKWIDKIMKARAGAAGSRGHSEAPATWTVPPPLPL

Row | SMILES | Ki [1] [nM] | Ki [2] [nM] | Ki [3] [nM] | Ki [4] [nM] | Ki [5] [nM] | inhibition at 10 µM [6] [%] | inhibition at 10 µM [7] [%] | inhibition at 10 µM [8] [%] | viability at 10 µM [9] [%] | viability at 10 µM [10] [%] | viability at 10 µM [11] [%]
1 | N=C(N)c1ccc(Oc2cc(Oc3ccc(C(=N)N)cc3)cc(C(N)=O)c2)cc1 | 1620 | 785 | 1060 | 640 | – | – | – | – | – | – | –
2 | N=C(N)c1ccc(Oc2cc(Oc3ccc(C(=N)N)cc3)cc(C(=O)NC3CCCCC3)c2)cc1 | 592 | 190 | 1640 | 179 | 2390 | – | – | – | – | – | –
3 | N=C(N)c1ccc(Oc2cc(Oc3ccc(C(=N)N)cc3)cc(C(=O)NCC3CCCCC3)c2)cc1 | 411 | 73 | 2410 | 571 | 2160 | – | – | – | – | – | –
4 | CC1CCC(NC(=O)c2cc(Oc3ccc(C(=N)N)cc3)cc(Oc3ccc(C(=N)N)cc3)c2)CC1 (centres undefined) | 770 | 282 | 744 | 253 | 3610 | – | – | – | – | – | –
5 | N=C(N)c1ccc(Oc2cc(Oc3ccc(C(=N)N)cc3)cc(C(=O)NC3CCC(O)CC3)c2)cc1 (centres undefined) | 301 | 538 | 1240 | – | – | – | – | – | – | – | –
6 | N=C(N)c1ccc(Oc2cc(Oc3ccc(C(=N)N)cc3)cc(C(=O)NC3CCN(CCCN)CC3)c2)cc1 | 141 | 415 | 1280 | 1035 | – | – | – | – | – | – | –
7 | N=C(N)c1ccc(Oc2cc(Oc3ccc(C(=N)N)cc3)cc(C(=O)N3CCC(CCN)CC3)c2)cc1 | 94 | 1290 | 4060 | 545 | – | 62 | 61 | 54 | 100 | 100 | 93
8 | N=C(N)c1ccc(Oc2cc(Oc3ccc(C(=N)N)cc3)cc(C(=O)NCC3CCC(O)CC3)c2)cc1 (centres undefined) | 1180 | 920 | 2850 | 1550 | – | – | – | – | – | – | –
9 | CCOC(=O)N1CCC(NC(=O)c2cc(Oc3ccc(C(=N)N)cc3)cc(Oc3ccc(C(=N)N)cc3)c2)CC1 | 1850 | 1030 | – | 471 | 2630 | – | – | – | – | – | –
10 | N=C(N)c1ccc(Oc2cc(Oc3ccc(C(=N)N)cc3)cc(C(=O)N3CCC(C(=O)O)CC3)c2)cc1 | – | – | – | 718 | – | – | – | – | – | – | –
11 | N=C(N)c1ccc(Oc2cc(Oc3ccc(C(=N)N)cc3)cc(C(=O)Nc3ccc(F)cc3)c2)cc1 | 591 | 1880 | 2100 | 1636 | 2670 | – | – | – | – | – | –
12 | N=C(N)c1ccc(Oc2cc(NC(=O)C3CCN(CCO)CC3)cc(Oc3ccc(C(=N)N)cc3)c2)cc1 | 18 | 1160 | 4200 | 1468 | – | – | – | – | – | – | –
13 | N=C(N)c1ccc(Oc2cc(NS(=O)(=O)c3ccc4ccccc4c3)cc(Oc3ccc(C(=N)N)cc3)c2)cc1 | 1790 | 876 | – | 3000 | – | – | – | – | – | – | –
14 | N=C(N)c1ccc(Oc2cc(Oc3ccc(N)nc3)cc(C(=O)N[C@H]3CC[C@H](N)CC3)c2)cc1 | 2030 | – | – | > 3000 | – | – | – | – | – | – | –
15 | N=C(N)c1ccc(COc2cc(Oc3ccc(C(=N)N)cc3)cc(C(=O)N[C@H]3CC[C@H](N)CC3)c2)cc1 | 10 | – | 2810 | 1868 | – | – | – | – | – | – | –
16 | N=C(N)c1ccc(Oc2cc(Oc3ccc(NC(=O)CCN)cc3)cc(C(=O)N[C@H]3CC[C@H](N)CC3)c2)cc1 | 116 | 3580 | 3250 | > 3000 | – | – | – | – | – | – | –
17 | N=C(N)c1ccc(Oc2cc(OCc3ccc(Br)nc3)cc(C(=O)N[C@H]3CC[C@H](N)CC3)c2)cc1 | 793 | 3680 | 3980 | > 3000 | – | – | – | – | – | – | –
18 | N=C(N)c1ccc(Oc2cc(OCc3ccc(Cl)cc3)cc(C(=O)N[C@H]3CC[C@H](N)CC3)c2)cc1 | 470 | – | – | – | – | – | – | – | – | – | –
19 | N=C(N)c1ccc(Oc2cc(OCc3ccc(Br)cc3)cc(C(=O)N[C@H]3CC[C@H](N)CC3)c2)cc1 | 260 | 2090 | 3970 | 2064 | – | 61 | 76 | 51 | 78 | 65 | 93
20 | N=C(N)c1ccc(COc2cc(OCc3ccc(C(=N)N)cc3)cc(C(=O)N[C@H]3CC[C@H](N)CC3)c2)cc1 | 23 | 1560 | 1640 | 1022 | – | – | – | – | – | – | –
21 | N=C(N)c1cccc(C[C@@H](NS(=O)(=O)c2cccc(C3CCC(N)=NC3)c2)C(=O)N2CCC(CCN)CC2)c1 (some centres undefined) | 0.08 | – | – | – | – | – | – | – | – | – | –

The next lines start with results.

Row | Ki [1] [nM] | Ki [2] [nM] | Ki [3] [nM] | Ki [4] [nM] | Ki [5] [nM] | SMILES | inhibition at 10 µM [6] [%] | inhibition at 10 µM [7] [%] | inhibition at 10 µM [8] [%] | viability at 10 µM [9] [%] | viability at 10 µM [10] [%] | viability at 10 µM [11] [%]
22 | 200 | – | – | – | – | N=C(N)c1ccc(Oc2ccc(Oc3ccc(C(=N)N)cc3)cc2)cc1 | – | – | – | – | – | –
23 | 1060 | 851 | 2820 | 534 | – | N=C(N)c1ccc(Oc2cc(N)cc(Oc3ccc(C(=N)N)cc3)c2)cc1 | – | – | – | – | – | –
24 | 204 | 640 | 1780 | – | – | N=C(N)c1ccc(Oc2cc(Oc3ccc(C(=N)N)cc3)cc(C(=O)NC3CCN(CCO)CC3)c2)cc1 | – | – | – | – | – | –
25 | 305 | 336 | 501 | 232 | 1530 | N=C(N)c1ccc(Oc2cc(Oc3ccc(C(=N)N)cc3)cc(C(=O)N3CCC4CCCCC4C3)c2)cc1 (centres undefined) | 45 | 15 | 47 | 78 | 79 | 87
26 | 730 | 273 | 1560 | 225 | 3850 | N=C(N)c1ccc(Oc2cc(Oc3ccc(C(=N)N)cc3)cc(C(=O)N3CCc4ccccc4C3)c2)cc1 | – | – | – | – | – | –
27 | 545 | 743 | 2340 | 516 | 1200 | CC1CCC(C(=O)Nc2cc(Oc3ccc(C(=N)N)cc3)cc(Oc3ccc(C(=N)N)cc3)c2)CC1 (centres undefined) | – | – | – | – | – | –
28 | 18 | 62 | 2530 | 1338 | 2410 | N=C(N)c1ccc(Oc2cc(NC(=O)C3CCN(CCN)CC3)cc(Oc3ccc(C(=N)N)cc3)c2)cc1 | – | – | – | – | – | –
29 | 1980 | 1160 | 4850 | 1388 | – | N=C(N)c1ccc(Oc2cc(NS(=O)(=O)c3ccc(F)cc3)cc(Oc3ccc(C(=N)N)cc3)c2)cc1 | – | – | – | – | – | –
30 | 1130 | – | – | > 3000 | – | N=C(N)c1ccc(Oc2cc(Oc3ccc(N)cc3)cc(C(=O)N[C@H]3CC[C@H](N)CC3)c2)cc1 | – | – | – | – | – | –
31 | 824 | – | 3540 | > 3000 | – | N=C(N)c1ccc(Oc2cc(Oc3ccc(C(N)=O)cc3)cc(C(=O)N[C@H]3CC[C@H](N)CC3)c2)cc1 | – | – | – | – | – | –
32 | 6 | 1140 | 2680 | 1541 | – | N=C(N)c1ccc(Oc2cc(OCc3cccc(C(=N)N)c3)cc(C(=O)N[C@H]3CC[C@H](N)CC3)c2)cc1 | – | – | – | – | – | –
33 | 1700 | – | – | 3850 | – | NCc1ccc(Oc2cc(Oc3ccc(CN)cc3)cc(C(=O)N[C@H]3CC[C@H](N)CC3)c2)cc1 | – | – | – | – | – | –
34 | 3 | 157 | 1290 | 901 | – | N=C(N)c1cccc(COc2cc(OCc3cccc(C(=N)N)c3)cc(C(=O)N[C@H]3CC[C@H](N)CC3)c2)c1 | – | – | – | – | – | –
